Assay results reported in publication PMC6095626, “Screening of the Pathogen Box for inhibitors with dual efficacy against Giardia lamblia and Cryptosporidium parvum” (PLoS Neglected Tropical Diseases, 2018).

Tests used:
[1] = tested on: G. lamblia trophozoites (luciferase expressing, WBC6); assay: microbe, parasite or virus in culture; type: cell-based, Giardia lamblia; conditions: initial Pathogen Box screen, single concentration 16 µM, inhibition compared to DMSO wells
Outline: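 Luciferase-expressing WBC6 trophozoites plated at 250,000 cells/mL, compounds added 1:1, incubated anaerobically (GasPak bags) at 37 °C for 24 h; viability read by bioluminescence, with duplicate plates counted on a MOXI Z cell counter. Metronidazole control serially diluted 1:2 from 40 μM.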

[2] = tested on: C. parvum (UGA1 Nluc expressing strain in HCT-8 cells); assay: microbe, parasite or virus in culture; type: cell-based, Cryptosporidium parvum; conditions: for Crypto (10 uM) Mean % inhibition: initial Pathogen Box screen, single concentration 10 µM, inhibition compared to DMSO wells
Outline: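 HCT-8 monolayers grown 48 h to 90–100% confluence, treated with compound at 10 μM or serial dilutions, then infected with bleach-treated UGA1 Nluc C. parvum oocysts.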

c1ccc(-c2[nH]c3ccccc3c2C(c2ccccn2)N2CCCC2)cc1 (stereo not shown) [MMV688762]
Giardia (16 uM) Mean % inhibition [1]: 22% | Crypto (10 uM) Mean % inhibition [2]: X* (Mean or standard deviation are negative but not significantly different from the control to be a growth promoter)

CNc1nnc(Sc2cnn(-c3ccccc3)c(=O)c2Cl)s1 [MMV688763]
Giardia (16 uM) Mean % inhibition [1]: X* (Mean or standard deviation are negative but not significantly different from the control to be a growth promoter) | Crypto (10 uM) Mean % inhibition [2]: 49%

COc1ccc(-c2onc(C(F)(F)F)c2-c2ccc(Cl)cc2)c(O)c1 [MMV688766]
Giardia (16 uM) Mean % inhibition [1]: 29% | Crypto (10 uM) Mean % inhibition [2]: X* (Mean or standard deviation are negative but not significantly different from the control to be a growth promoter)

Cc1[nH]c2ccccc2c1C(c1cccs1)N1CCN(C)CC1 (stereo not shown) [MMV688768]
Giardia (16 uM) Mean % inhibition [1]: 9% | Crypto (10 uM) Mean % inhibition [2]: 66%

Cc1ccccc1C(=O)N1NC(=Nc2ccccc2)SC1(C)C [MMV688771]
Giardia (16 uM) Mean % inhibition [1]: 51% | Crypto (10 uM) Mean % inhibition [2]: 82%

O=C(Cn1ccnc1[N+](=O)[O-])NCc1ccccc1 [MMV688773]
Giardia (16 uM) Mean % inhibition [1]: 57% | Crypto (10 uM) Mean % inhibition [2]: 55%

CC[C@@H]([C@H](C)O)n1ncn(-c2ccc(N3CCN(c4ccc(OC[C@@H]5CO[C@@](Cn6cncn6)(c6ccc(F)cc6F)C5)cc4)CC3)cc2)c1=O [MMV688774]
Giardia (16 uM) Mean % inhibition [1]: X* (Mean or standard deviation are negative but not significantly different from the control to be a growth promoter) | Crypto (10 uM) Mean % inhibition [2]: 90%

Cc1cccnc1NC(=O)c1cccc(OCc2c(C)noc2C)c1 [MMV688793]
Giardia (16 uM) Mean % inhibition [1]: 45% | Crypto (10 uM) Mean % inhibition [2]: 63%

O=C(NCCc1ccn(-c2ccccc2)n1)C1CCCCC1 [MMV688795]
Giardia (16 uM) Mean % inhibition [1]: 29% | Crypto (10 uM) Mean % inhibition [2]: X* (Mean or standard deviation are negative but not significantly different from the control to be a growth promoter)

O=C(NCc1nnc2n1CCCCC2)c1ccc(-c2ccc(F)cc2)o1 [MMV688796]
Giardia (16 uM) Mean % inhibition [1]: 52% | Crypto (10 uM) Mean % inhibition [2]: 44%

CC1CCCCN1C(=O)NCCc1coc(-c2ccc(F)cc2)n1 (stereo not shown) [MMV688797]
Giardia (16 uM) Mean % inhibition [1]: 23% | Crypto (10 uM) Mean % inhibition [2]: X* (Mean or standard deviation are negative but not significantly different from the control to be a growth promoter)

CS(=O)(=O)c1ccccc1C(=O)N(Cc1ccccc1)c1ccccc1 [MMV688798]
Giardia (16 uM) Mean % inhibition [1]: 9% | Crypto (10 uM) Mean % inhibition [2]: 46%

O=C(N[C@H](Cc1ccccc1)C(=O)Nc1ccccc1N1CCOCC1)c1cccs1 [MMV688845]
Giardia (16 uM) Mean % inhibition [1]: 25% | Crypto (10 uM) Mean % inhibition [2]: 77%

Cc1ccccc1CN1CCC(O)(c2ccc(Cl)c(C(F)(F)F)c2)CC1 [MMV688846]
Giardia (16 uM) Mean % inhibition [1]: 35% | Crypto (10 uM) Mean % inhibition [2]: X* (Mean or standard deviation are negative but not significantly different from the control to be a growth promoter)

CC(C)(C)n1nc(Cc2ccc(F)c(Cl)c2)c2c(N)ncnc21 [MMV688852]
Giardia (16 uM) Mean % inhibition [1]: 27% | Crypto (10 uM) Mean % inhibition [2]: 80%

CCOc1ccc2cc(-c3nn(C(C)(C)C)c(N)c3C(N)=O)cnc2c1 [MMV688853]
Giardia (16 uM) Mean % inhibition [1]: X* (Mean or standard deviation are negative but not significantly different from the control to be a growth promoter) | C. parvum cell growth inhibition in the initial screen ([2]; 10 μM, 48 hours): ≥ 95% | Crypto (10 uM) Mean % inhibition [2]: 96%

CN1CCN(c2cc(-c3ccc(F)cc3)nc(-c3ccncc3)n2)CC1 [MMV688888]
Giardia (16 uM) Mean % inhibition [1]: 62% | Crypto (10 uM) Mean % inhibition [2]: 84%

Clc1ccc(CCNc2cc(-c3ccccc3)nc3ncnn23)cc1 [MMV688889]
Giardia (16 uM) Mean % inhibition [1]: 65% | Crypto (10 uM) Mean % inhibition [2]: 51%

COc1cc(Br)cc2cc(C(=O)Nc3cccc(C(F)(F)F)c3)c(=O)oc12 [MMV688891]
Giardia (16 uM) Mean % inhibition [1]: 7.41% | Crypto (10 uM) Mean % inhibition [2]: 51%

OC[C@H]1O[C@@H](n2c3ccc(Cl)cc3c3c(-c4cc5ccccc5o4)ncnc32)C(O)[C@H]1O (stereo partly shown) [MMV688921]
Giardia (16 uM) Mean % inhibition [1]: 5.44% | Crypto (10 uM) Mean % inhibition [2]: 51%

CCc1nn(C)c(C(=O)NCc2ccc(Oc3ccc(C)cc3)cc2)c1Cl [MMV688934]
Giardia (16 uM) Mean % inhibition [1]: 72% | Crypto (10 uM) Mean % inhibition [2]: 88%

O=C(c1ccco1)N(CCCn1ccnc1)c1nc2c(Cl)cccc2s1 [MMV688936]
Giardia (16 uM) Mean % inhibition [1]: 31% | Crypto (10 uM) Mean % inhibition [2]: 6.36%

CCOc1ccc(-c2nc(CNCCc3ccc(F)cc3)cs2)cc1 [MMV688938]
Giardia (16 uM) Mean % inhibition [1]: 65% | Crypto (10 uM) Mean % inhibition [2]: X* (Mean or standard deviation are negative but not significantly different from the control to be a growth promoter)

Cc1ccc2nc(C)c(-c3ccn(Cc4ccccc4)n3)n2c1 [MMV688939]
Giardia (16 uM) Mean % inhibition [1]: X* (Mean or standard deviation are negative but not significantly different from the control to be a growth promoter) | Crypto (10 uM) Mean % inhibition [2]: 73%

COc1cc(CN2CCC3(C=Cc4ccccc43)CC2)cc2c1OCO2 [MMV688941]
Giardia (16 uM) Mean % inhibition [1]: 62% | Crypto (10 uM) Mean % inhibition [2]: 56%

CC(C)(C)C(O)C(Oc1ccc(-c2ccccc2)cc1)n1cncn1 (stereo not shown) [MMV688942]
Giardia (16 uM) Mean % inhibition [1]: 40% | Crypto (10 uM) Mean % inhibition [2]: X* (Mean or standard deviation are negative but not significantly different from the control to be a growth promoter)

CC1COC(Cn2cncn2)(c2ccc(Oc3ccc(Cl)cc3)cc2Cl)O1 (stereo not shown) [MMV688943]
Giardia (16 uM) Mean % inhibition [1]: 81% | Crypto (10 uM) Mean % inhibition [2]: 46%

Cc1cc(NC(=O)c2ccc(Oc3ccc(Cl)cc3O)o2)no1 [MMV688955]
Giardia (16 uM) Mean % inhibition [1]: 26% | Crypto (10 uM) Mean % inhibition [2]: 50%

CCc1cc(=O)n(C)c(SC(C)C(=O)Nc2ccc(F)cc2)n1 (stereo not shown) [MMV688980]
Giardia (16 uM) Mean % inhibition [1]: 17% | Crypto (10 uM) Mean % inhibition [2]: X* (Mean or standard deviation are negative but not significantly different from the control to be a growth promoter)

CCCCCCCCCCCCCCCCOP(=O)([O-])OCC[N+](C)(C)C [MMV688990]
Giardia (16 uM) Mean % inhibition [1]: X* (Mean or standard deviation are negative but not significantly different from the control to be a growth promoter) | Crypto (10 uM) Mean % inhibition [2]: X* (Mean or standard deviation are negative but not significantly different from the control to be a growth promoter)

CNC1C(OC2C(OC3C(O)C(O)C(N=C(N)N)C(O)C3N=C(N)N)OC(C)C2(O)C=O)OC(CO)C(O)C1O (stereo not shown) [MMV688994]
Giardia (16 uM) Mean % inhibition [1]: X* (Mean or standard deviation are negative but not significantly different from the control to be a growth promoter) | Crypto (10 uM) Mean % inhibition [2]: 47%

C[C@@H]1[C@H](O)[C@@H](C)/C=C/C=C/C=C/C=C/C=C/C=C/C=C/[C@H](O[C@@H]2O[C@H](C)[C@@H](O)[C@H](N)[C@@H]2O)C[C@@H]2O[C@](O)(C[C@@H](O)C[C@@H](O)[C@H](O)CC[C@@H](O)C[C@@H](O)CC(=O)O[C@H]1C)C[C@H](O)[C@H]2C(=O)O [MMV689000]
Giardia (16 uM) Mean % inhibition [1]: 41% | Crypto (10 uM) Mean % inhibition [2]: X* (Mean or standard deviation are negative but not significantly different from the control to be a growth promoter)

Cc1ccc(S(=O)(=O)Nc2ccc(CN3CCN(C(=O)c4cccc(C#N)c4)CC3)cc2)cc1 [MMV689028]
Giardia (16 uM) Mean % inhibition [1]: 56% | Crypto (10 uM) Mean % inhibition [2]: 58%

COc1ccc(S(=O)(=O)Nc2ccc(CN3CCN(C(=O)c4cccc(C#N)c4)CC3)cc2)cc1 [MMV689029]
Giardia (16 uM) Mean % inhibition [1]: 54% | Crypto (10 uM) Mean % inhibition [2]: 54%

Clc1ccc(CN2CCN(C3=NCCN3)CC2)cc1Cl [MMV689060]
Giardia (16 uM) Mean % inhibition [1]: X* (Mean or standard deviation are negative but not significantly different from the control to be a growth promoter) | Crypto (10 uM) Mean % inhibition [2]: 50%

CC(=O)Nc1ccc(-c2noc(CC3CCCN(Cc4cccc(F)c4C)C3)n2)cc1 (stereo not shown) [MMV689061]
Giardia (16 uM) Mean % inhibition [1]: 17% | Crypto (10 uM) Mean % inhibition [2]: 59%

FC(F)(F)c1ccc(N(c2cccnc2)C2CCN(c3ccc(C(F)(F)F)cn3)CC2)cc1 [MMV689243]
Giardia (16 uM) Mean % inhibition [1]: 11% | Crypto (10 uM) Mean % inhibition [2]: X* (Mean or standard deviation are negative but not significantly different from the control to be a growth promoter)

O=C([C@@H](c1ccc(Cl)cc1)c1cccnc1)N1CCN(c2ccc(C(F)(F)F)cc2)CC1 [MMV689244]
Giardia (16 uM) Mean % inhibition [1]: 33% | Crypto (10 uM) Mean % inhibition [2]: X* (Mean or standard deviation are negative but not significantly different from the control to be a growth promoter)

Nc1ncnc2c1ncn2C[C@@H](O)[C@@H](O)C(=O)O [MMV689255]
Giardia (16 uM) Mean % inhibition [1]: 33% | Crypto (10 uM) Mean % inhibition [2]: 46%

CC(c1cc(Cl)cc(Cl)c1)N(C)c1ncc2c(N)nc(N)nc2n1 (stereo not shown) [MMV689437]
Giardia (16 uM) Mean % inhibition [1]: 46% | Crypto (10 uM) Mean % inhibition [2]: X* (Mean or standard deviation are negative but not significantly different from the control to be a growth promoter)

CNc1cc(C)nc(C2CN(C(=O)c3n[nH]c4ccccc34)CCO2)c1 (stereo not shown) [MMV689709]
Giardia (16 uM) Mean % inhibition [1]: 19% | Crypto (10 uM) Mean % inhibition [2]: 45%

COc1nc2ccc(Br)cc2cc1[C@@H](c1ccccc1)[C@@](O)(CCN(C)C)c1cccc2ccccc12 [MMV689758]
Giardia (16 uM) Mean % inhibition [1]: 62% | Crypto (10 uM) Mean % inhibition [2]: 68%

COc1ccc(C2=NN(C3CCCCCC3)C(=O)[C@@H]3CC=CC[C@H]23)cc1OCCCCOc1ccc(-c2nn[nH]n2)cc1 [MMV690027]
Giardia (16 uM) Mean % inhibition [1]: 24% | Crypto (10 uM) Mean % inhibition [2]: 44%

COc1ccc(C2=NN(C3CCCCCC3)C(=O)C2(C)C)cc1OCCCCOc1ccc(-c2nn[nH]n2)cc1 [MMV690028]
Giardia (16 uM) Mean % inhibition [1]: 70% | Crypto (10 uM) Mean % inhibition [2]: 61%

COc1ccc(Oc2ccc([C@@H](C)N(C)c3ncc4c(N)nc(N)nc4n3)cc2)cc1 [MMV690102]
Giardia (16 uM) Mean % inhibition [1]: 62% | Crypto (10 uM) Mean % inhibition [2]: 77%
